System: rat hepatic stellate cells
Experiment: Hepatic stellate cell apoptosis by acridine orange staining and counting (cycloheximide or serum deprivation), rat cells
Type: cell-based
Protocol: Human hepatic stellate cells were extracted from the margins of normal human liver resected for colonic metastatic disease as previously described (Iredale et al., Clin. Sci., (1995) 89: 75-81). Rat hepatic stellate cells were extracted from normal rat liver by Pronase and collagenase digestion and purified by centrifugal elutriation as described (Arthur et al., J. Clin. Invest., (1989) 84:1076-1085). Extracted hepatic stellate cells were cultured on plastic until they were activated to a myofibroblastic phenotype after 7 to 10 days. Human and rat hepatic stellate cells were used for experiments after activation in primary culture or before fourth passage. Cells were cultured in Dulbecco's modified Eagle's medium in the presence of 16% fetal calf serum and antibiotics.
Apoptosis of hepatic stellate cells was induced by absolute serum deprivation, cycloheximide treatment (Issa et al., Gut (2001) 48: S48-S57), or exposure to nerve growth factor as previously described (Trim et al., Am. J. Pathol., (2000) 156, 1235-1243). Hepatic stellate cells were cultured in 24-well tissue culture plates. Rat and human hepatic stellate cells were exposed to proapoptotic stimuli with and without recombinant TIMP-1 (Biogenesis, Poole, UK) and other manipulations as detailed below. Following a 4 hour incubation at 37° C., nuclear morphology was assessed by adding acridine orange to each well (final concentration 1 μg/ml) and observing the cells under blue fluorescence. The total number of apoptotic bodies was counted, and any apoptotic bodies floating in the supernatant were included by racking up the objective lens. The total number of cells per field was counted, and an apoptotic index was calculated. Each condition was performed in duplicate, and three high power fields were counted for each well. […] To examine for autocrine effects, hepatic stellate cells were incubated for 18 hours with azide-free polyclonal neutralizing antibodies to TIMP-1 and a nonimmune IgG control (Santa Cruz Biotechnology, Inc., Santa Cruz, Calif.), and responses were assessed by acridine orange staining and counting.
Apoptosis was assessed by acridine orange staining. […] A normal cell lies adjacent to the apoptotic body. This technique was used to determine the percentage of apoptotic hepatic stellate cells following exposure to cyclohexamide in the presence or absence of TIMP-1. Hepatic stellate cells were exposed to 50 μM cyclohexamide and 0, 1, 10, 100 or 200 ng/ml of TIMP-1. Cells treated with serum alone were used as controls. […] Bovine serum albumin, used as a carrier for the TIMP-1 had no antiapoptotic effect.

TIMP-1: recombinant tissue inhibitor of matrix metalloproteases 1 (Biogenesis)
apoptosis induced by cycloheximide (acridine orange) (50 μM cycloheximide, 4 hours, TIMP-1 1-200 ng/ml): significantly reduces apoptosis of activated hepatic stellate cells induced by cycloheximide exposure in a dose-dependent manner
apoptosis in serum-free conditions (acridine orange) (24 hour incubation in serum-free conditions): identical effect
reduction in apoptotic morphology by acridine orange staining and counting (TIMP-1 10 ng/ml, cycloheximide): 30%
reduction in apoptosis by acridine orange staining and counting (TIMP-1 100 ng/ml, cycloheximide): 50%
apoptosis induced by cycloheximide (acridine orange) (rat HSC, protein at 142.5 ng/ml): inhibited apoptosis induced by cycloheximide exposure

Reference: patent US20080220056A1, “Treatment for liver disease” (UNIVERSITY OF SOUTHAMPTON, priority 2002, published 2008)
